In patent US10758744B2, “Combination of an oxidant and a photoactivator for the wounds” (KLOX TECHNOLOGIES INC., priority 2008, dated 2020):

Tested on: Hep G2 human hepatocellular carcinoma cells
Conditions: 24 hours, 0.001 to 100 μM, compared to untreated cells
Protocol: Hep G2 cells were treated for 24 hours with increasing concentrations (0.001 to 100 μM) of Eosin Y, or left untreated (CTL).
Hep G2 cells were treated for 24 hours with increasing concentrations (0.001 to 100 μM) of Erythrosine B, or left untreated (CTL). Staurosporine (STS) was used as a positive control inducing cellular mortality.
The toxicity of the photoactivators Eosin Y and Erythrosine B was evaluated by measuring the cytotoxicity of these compounds on human cells. Hep G2 human hepatocellular carcinoma cells with an epithelial morphology were treated for 24 hours with increasing concentrations (0.001 to 100 μM) of Eosin Y or Erythrosine B, and the cellular survival was evaluated.

CN[C@@H]1C[C@H]2O[C@@](C)([C@@H]1OC)n1c3ccccc3c3c4c(c5c6ccccc6n2c5c31)C(=O)NC4 [Staurosporine]
cellular viability: caused a dose-dependent effect
